One assay deals with CA1 pyramidal neurons. Description: Cell-attached recording of spontaneous spiking activity in acute hippocampal slices. The conditions noted are these: Ts65Dn neurons. Type of assay: cell-based, Ts65Dn mice.
The subject of assay [1] is Ts65Dn mice. As to the kind of experiment: Novel object recognition task. Type of assay: in vivo. The conditions noted are these: for object novelty discrimination (novel object recognition task): Ts65Dn mice. The text has this:
(§1) FIG. 5 represents the effect of bumetanide systemic treatment on cognitive functions in behavioral tasks in Ts65Dn mice. […] (B) Top, schematic representation of the contextual fear conditioning test. […] (C) Top, schematic representation of the object location test. […] (D) Top, schematic representation of the novel object recognition task. […] For all panels, histograms represent average±SEM, whereas circles indicate data from single animals.

Assay [2] concerns Ts65Dn mice. Description: Object location test. Type of assay: in vivo.
Source text: as §1

The test system of assay [3] is CA1 hippocampal pyramidal neurons. Description: Gramicidin perforated patch-clamp of GABA currents (reversal potential EC1) in hippocampal slices. The note with it: for EC1 values: 20 min after bath application of bumetanide (10 μM). Type of assay: cell-based, Ts65Dn and WT mice. The text has this: The vertical dotted lines indicate the value of the reversal potential on the x axis. Insets, sample traces of GABA-induced currents at different holding potentials. Scale bars: vertical, 50 pA; horizontal, 50 ms. […] Average resting potentials (dotted lines) were not different in Ts65Dn and WT neurons.
(In general: In patch-clamp work, channel activity is measured electrically.)

Assay [4] has as its system hippocampal CA3 pyramidal neurons. Description: Whole-cell voltage clamp recordings of spontaneous excitatory postsynaptic currents (sEPSCs) in acute brain slices. Type of assay: cell-based, Ts65Dn mice. The conditions noted are these: acute bumetanide application, P15 Ts65Dn slices, -70 mV. The text has this:
FIG. 1 represents the effect of acute bumetanide on the spontaneous activity in Ts65Dn mice at P15 compared to control values. Whole-cell voltage clamp recordings of spontaneous excitatory postsynaptic currents (sEPSCs) at −70 mV from individual hippocampal CA3 pyramidal neurons in acute […] brain slices from P15 Ts65Dn. (A) Representative traces of sEPSCs recorded from Ts65Dn mice in control and in the presence of bumetanide. (B) Average values of frequency of sEPSCs recorded in control mice (n=9), in Ts65Dn mice (n=9) **p<0.006 (two-tails two-samples t-test) and with bumetanide application (n=9), ***p<0.001 (two-tails paired t-test).

For assay [5], the system named is Ts65Dn mice. As to the kind of experiment: Contextual fear conditioning test. Type of assay: in vivo. The conditions noted are these: for associative memory (contextual fear conditioning): Ts65Dn mice.
Source text: as §1

Another assay concerns hippocampal CA3CA1 LTP. As to the kind of experiment: Hippocampal CA3-CA1 LTP (fEPSP slope after TBS) in hippocampal slices. The note with it: bath application of bumetanide (10 μM), Ts65Dn slices, last 5 min of recordings, 60 min after TBS. Type of assay: cell-based, Ts65Dn mice. The protocol: FIG. 4 represents the effect of bumetanide bath application on hippocampal CA3CA1 LTP in Ts65Dn mice. […] Numbers in parentheses: number of animals utilized. Insets: Average of 10 fEPSP traces recorded for each experimental group before (continuous line) and 60 min after TBS (dashed line). Stimulus artefacts have been deleted from traces for clarity. Scale bars: vertical, 1 mV; horizontal, 10 ms.

Assay [6] concerns children with Down syndrome. The conditions noted are these: even at doses associated with adverse effects; cited from earlier work.
Setting [7] is: summary statement, duration not stated.

“Also recorded” adds a separate entry of the source.

As to `NCCCC(=O)O` [GABA], in the assay on CA1 pyramidal neurons (bath application of GABA (10 μM), 10-12 weeks of age), the spike frequency entry was “increased spike frequency”.

Regarding `CCCCNc1cc(C(=O)O)cc(S(N)(=O)=O)c1Oc1ccccc1` [bumetanide], the “novel object recognition test” value in the assay on Ts65Dn mice [1] (setting [7]) is “rescues the behavioral deficient novel object recognition”. For the same compound, the “object novelty discrimination (novel object recognition task)” value with Ts65Dn mice [1] (treatment for 1 week) and with Ts65Dn mice [1] (treatment for 4 weeks) was “restored object novelty discrimination” each time. Moreover, in the assay on CA1 pyramidal neurons (co-treatment GABA and bumetanide (10 μM)), the “spike frequency increase induced by GABA” value is listed as “reverted this effect”. The “spatial memory (object location test)” value with Ts65Dn mice [2] (after 1 week of treatment) and in the assay on Ts65Dn mice [2] (after 4 weeks of treatment) was “rescued spatial memory deficits” throughout. Besides, the EC1 values result in assay [3] (Ts65Dn cells) is “rescued the depolarized EC1”; in assay [3] (WT mice) it was “unaltered”. Further, the “polarity of the actions of GABA” value in assay [3] (Ts65Dn mice, summary statement) is “restores LTP, hyperpolarizing GABA actions”. Moreover, the “ongoing excitatory glutamatergic activity (frequency of sEPSCs)” value in assay [4] is given as “reduces elevated glutamatergic activity”. Further, the “associative memory (contextual fear conditioning)” value with Ts65Dn mice [5] (bumetanide systemic treatment for 1 week (1W)) and with Ts65Dn mice [5] (bumetanide systemic treatment for 4 weeks (4W)) was “rescued memory deficit” in each case. The memory tests entry with Ts65Dn mice [5] (setting [7]) is “rescues the behavioral deficient novel object recognition and memory tests”. Further, the “LTP (increase in the slope of fEPSP)” value in the assay with hippocampal CA3CA1 LTP was “restores LTP; also recorded: rescued this deficit”.

Take `NC(=O)CN1CCCC1=O` [piracetam]: the “cognitive and behavioral measures” value in assay [6] is “neither cognitive nor behavioral measures demonstrated improvement”.

The record behind these values is US9822368B2, “Modulators of intracellular chloride concentration for treating down syndrome” (Fondazione Istituto Italiano di Tecnologia, priority 2013, dated 2017).
